# In ChEMBL document CHEMBL1201862, “PubChem BioAssay data set” (2004):
#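 Briefly, cells in 96-well plates were exposed to five compound concentrations for 48 h, and endpoints were estimated by linear interpolation. GI50 = concentration required for 50% inhibition of growth.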 Calls of active or inactive are those of the source. Rule as the data show it: active = GI50 up to about 1.1 µM and inactive = higher.
# Legend:
# Assay in all cases: NCI-60 cell line screen, 48 h
# SW-620 = tested on: SW-620
# SR = tested on: SR
# CCRF-CEM = tested on: CCRF-CEM
# K562 = tested on: K562
# ACHN = tested on: ACHN
# SK-MEL-2 = tested on: SK-MEL-2
# TK-10 = tested on: TK-10
# SK-MEL-5 = tested on: SK-MEL-5
# SK-OV-3 = tested on: SK-OV-3
# SNB-78 = tested on: SNB-78
# HT-29 = tested on: HT-29
# SNB-19 = tested on: SNB-19
# DMS-273 = tested on: DMS-273
# HOP-92 = tested on: HOP-92
# OVCAR-8 = tested on: OVCAR-8
# DU-145 = tested on: DU-145
# NCI/ADR-RES = tested on: NCI/ADR-RES
# M14 = tested on: M14
# MCF7 = tested on: MCF7
# OVCAR-3 = tested on: OVCAR-3
Structure (SMILES),GI50 (SW-620),GI50 (SR),GI50 (CCRF-CEM),GI50 (K562),GI50 (ACHN),GI50 (SK-MEL-2),GI50 (TK-10),GI50 (SK-MEL-5),GI50 (SK-OV-3),GI50 (SNB-78),GI50 (HT-29),GI50 (SNB-19),GI50 (DMS-273),GI50 (HOP-92),GI50 (OVCAR-8),GI50 (DU-145),GI50 (NCI/ADR-RES),GI50 (M14),GI50 (MCF7),GI50 (OVCAR-3)
Cc1cc(C)c(C(=O)O)c(SSc2cc(C)cc(C)c2C(=O)O)c1,> 100 µM (inactive),> 100 µM (inactive),57.7 µM (inactive),> 100 µM (inactive),> 100 µM (inactive),> 100 µM (inactive),> 100 µM (inactive),> 100 µM (inactive),> 100 µM (inactive),> 100 µM (inactive),> 100 µM (inactive),> 100 µM (inactive),> 100 µM (inactive),> 100 µM (inactive),> 100 µM (inactive),–,–,–,–,–
CC(=O)OC(C)C1C2=C(C(=O)CC1(C)O)C(=O)c1c(ccc(-c3ccc4c(c3O)C(=O)C3=C(C4=O)C(C(C)OC(C)=O)C(C)(O)CC3=O)c1O)C2=O (centres undefined),0.667 µM (active),1.1 µM (active),0.308 µM (active),0.701 µM (active),1.73 µM (inactive),1.75 µM (inactive),2.19 µM (inactive),3.19 µM (inactive),10.8 µM (inactive),3.18 µM (inactive),1.72 µM (inactive),11.7 µM (inactive),1.52 µM (inactive),1.57 µM (inactive),2.45 µM (inactive),5.78 µM (inactive),15.8 µM (inactive),2.11 µM (inactive),1.53 µM (inactive),2.2 µM (inactive)
COC(=O)C1CC(=O)CCC1c1ccccc1 (centres undefined),> 100 µM (inactive),> 100 µM (inactive),> 100 µM (inactive),> 100 µM (inactive),> 100 µM (inactive),> 100 µM (inactive),> 100 µM (inactive),> 100 µM (inactive),> 100 µM (inactive),> 100 µM (inactive),> 100 µM (inactive),> 100 µM (inactive),> 100 µM (inactive),> 100 µM (inactive),> 100 µM (inactive),–,–,> 100 µM (inactive),–,> 100 µM (inactive)
CSc1nc(SC)c2c(C#N)n[nH]c2n1,> 100 µM (inactive),> 100 µM (inactive),> 100 µM (inactive),> 100 µM (inactive),> 100 µM (inactive),> 100 µM (inactive),49.4 µM (inactive),> 100 µM (inactive),> 100 µM (inactive),> 100 µM (inactive),> 100 µM (inactive),> 100 µM (inactive),> 100 µM (inactive),48.5 µM (inactive),> 100 µM (inactive),–,–,> 100 µM (inactive),–,> 100 µM (inactive)
Clc1cc(Cl)c2ns[s+]c2c1Cl,> 100 µM (inactive),> 100 µM (inactive),> 100 µM (inactive),> 100 µM (inactive),> 100 µM (inactive),> 100 µM (inactive),> 100 µM (inactive),> 100 µM (inactive),> 100 µM (inactive),0.158 µM (active),> 100 µM (inactive),> 100 µM (inactive),> 100 µM (inactive),–,> 100 µM (inactive),–,–,> 100 µM (inactive),–,> 100 µM (inactive)
CN(C)CCS/C(=N\c1ccccc1)n1cccc1,> 100 µM (inactive),33.2 µM (inactive),57.7 µM (inactive),53.6 µM (inactive),78.5 µM (inactive),44.7 µM (inactive),> 100 µM (inactive),35.9 µM (inactive),> 100 µM (inactive),22.2 µM (inactive),41.5 µM (inactive),> 100 µM (inactive),62.5 µM (inactive),24 µM (inactive),> 100 µM (inactive),–,–,> 100 µM (inactive),–,> 100 µM (inactive)
Cc1c(-c2cc(-c3ccccc3)n[nH]c2=O)c2ccccc2n1C,> 100 µM (inactive),> 100 µM (inactive),> 100 µM (inactive),> 100 µM (inactive),> 100 µM (inactive),> 100 µM (inactive),> 100 µM (inactive),> 100 µM (inactive),> 100 µM (inactive),> 100 µM (inactive),> 100 µM (inactive),> 100 µM (inactive),> 100 µM (inactive),> 100 µM (inactive),> 100 µM (inactive),–,–,> 100 µM (inactive),–,> 100 µM (inactive)
CCOC(=O)C1=C(C)Nc2ccccc2S1,> 100 µM (inactive),> 100 µM (inactive),> 100 µM (inactive),> 100 µM (inactive),> 100 µM (inactive),> 100 µM (inactive),> 100 µM (inactive),> 100 µM (inactive),> 100 µM (inactive),> 100 µM (inactive),> 100 µM (inactive),> 100 µM (inactive),73.8 µM (inactive),44 µM (inactive),–,–,–,> 100 µM (inactive),–,> 100 µM (inactive)
Cn1cnc(CCc2ccccc2)n1,> 100 µM (inactive),> 100 µM (inactive),> 100 µM (inactive),> 100 µM (inactive),> 100 µM (inactive),> 100 µM (inactive),> 100 µM (inactive),> 100 µM (inactive),> 100 µM (inactive),> 100 µM (inactive),> 100 µM (inactive),–,> 100 µM (inactive),> 100 µM (inactive),> 100 µM (inactive),–,–,> 100 µM (inactive),–,> 100 µM (inactive)
C/C(CN1C(=O)c2ccccc2C1=O)=N\NS(=O)(=O)c1cccc(C(=O)O)c1,> 100 µM (inactive),> 100 µM (inactive),> 100 µM (inactive),> 100 µM (inactive),> 100 µM (inactive),> 100 µM (inactive),> 100 µM (inactive),> 100 µM (inactive),> 100 µM (inactive),> 100 µM (inactive),> 100 µM (inactive),> 100 µM (inactive),> 100 µM (inactive),–,> 100 µM (inactive),–,–,> 100 µM (inactive),–,> 100 µM (inactive)
CC(C)c1cc(C(C)C)c(S(=O)(=O)NN)c(C(C)C)c1,> 100 µM (inactive),> 100 µM (inactive),–,> 100 µM (inactive),> 100 µM (inactive),> 100 µM (inactive),> 100 µM (inactive),> 100 µM (inactive),–,> 100 µM (inactive),> 100 µM (inactive),> 100 µM (inactive),> 100 µM (inactive),> 100 µM (inactive),> 100 µM (inactive),–,–,–,–,> 100 µM (inactive)
N#Cc1ccc(Sc2nc3ccccc3[nH]2)cc1,> 100 µM (inactive),> 100 µM (inactive),> 100 µM (inactive),> 100 µM (inactive),> 100 µM (inactive),> 100 µM (inactive),> 100 µM (inactive),34.4 µM (inactive),> 100 µM (inactive),> 100 µM (inactive),> 100 µM (inactive),> 100 µM (inactive),> 100 µM (inactive),> 100 µM (inactive),> 100 µM (inactive),–,–,–,–,–
C[N+](C)(C)CC1CCC/C1=N/O (centres undefined),2.62 µM (inactive),27.7 µM (inactive),17.9 µM (inactive),23.7 µM (inactive),> 100 µM (inactive),> 100 µM (inactive),> 100 µM (inactive),> 100 µM (inactive),> 100 µM (inactive),> 100 µM (inactive),39.3 µM (inactive),> 100 µM (inactive),60.7 µM (inactive),> 100 µM (inactive),1.86 µM (inactive),–,–,> 100 µM (inactive),–,> 100 µM (inactive)
COC(=O)[C@@H]1CCCCC[C@H]2C(CO)=C(C)C(=O)C12 (some centres undefined),> 100 µM (inactive),> 100 µM (inactive),> 100 µM (inactive),> 100 µM (inactive),> 100 µM (inactive),> 100 µM (inactive),> 100 µM (inactive),> 100 µM (inactive),> 100 µM (inactive),> 100 µM (inactive),> 100 µM (inactive),> 100 µM (inactive),> 100 µM (inactive),> 100 µM (inactive),> 100 µM (inactive),–,–,> 100 µM (inactive),–,–
CC(=O)NNc1nc(C)c(C(=O)NNC(=O)C(=O)Nc2c(Cl)cc([N+](=O)[O-])cc2Cl)s1,24.5 µM (inactive),30.5 µM (inactive),31.8 µM (inactive),36 µM (inactive),31.8 µM (inactive),43.5 µM (inactive),41.4 µM (inactive),40 µM (inactive),48.5 µM (inactive),31.9 µM (inactive),37.8 µM (inactive),43.8 µM (inactive),32.6 µM (inactive),19.5 µM (inactive),34.1 µM (inactive),–,–,52.1 µM (inactive),–,21 µM (inactive)
C=C1C(OC(=O)/C=C/c2ccccc2)CC(OC(C)=O)C2(C)C1CC1CC(OC(C)=O)C(C)=C(C(OC(C)=O)C2OC(C)=O)C1(C)C (centres undefined),> 100 µM (inactive),3.97 µM (inactive),5.25 µM (inactive),5.25 µM (inactive),–,–,> 100 µM (inactive),4.1 µM (inactive),> 100 µM (inactive),> 100 µM (inactive),> 100 µM (inactive),> 100 µM (inactive),4.2 µM (inactive),> 100 µM (inactive),> 100 µM (inactive),–,–,> 100 µM (inactive),–,–
C/C(=C\COc1ccc2ccc(=O)oc2c1)C1=CC(=O)C(C)(C)O1 [GEIPARVARIN],3.43 µM (inactive),1.68 µM (inactive),1.51 µM (inactive),4.39 µM (inactive),4.39 µM (inactive),3.66 µM (inactive),5.07 µM (inactive),3.45 µM (inactive),7.87 µM (inactive),4.15 µM (inactive),4.01 µM (inactive),6.15 µM (inactive),4.42 µM (inactive),3.76 µM (inactive),7.11 µM (inactive),2.53 µM (inactive),2.64 µM (inactive),4.04 µM (inactive),–,3.7 µM (inactive)
